Experimental data reported in patent publication US9994905B2, “Methods for the diagnosis and treatment of pulmonary fibrosis in subjects with hermansky pudlak syndrome” (BROWN UNIVERSITY, priority 2014, dated 2018).
Like-named read-outs stand apart in the source and are kept apart here.

How the values were obtained:
[1] = test system: Primary Type II alveolar epithelial cells; assay: Bleomycin-induced apoptosis (TUNEL) in primary Type II alveolar epithelial cells; format: cell-based, mouse; settings: 500 ng/ml pre-treatment, 100 μg/ml bleomycin (FIG. 5A)
Protocol: End labeling of exposed 3′-OH ends of DNA fragments in paraffin-embedded tissue was undertaken with the TUNEL in situ cell death detection kit AP (Roche Diagnostics). SPC co-staining was performed using a goat anti-mouse SPC primary antibody (Santa Cruz) and Alexa Fluor 594 secondary antibody. After staining, 8-10 random pictures were obtained from each lung, and a minimum of 300 cells were visually evaluated in each section. The labeled cells were expressed as a percentage of total nuclei.
WT and pale ear mouse lungs were digested with collagenase and DNase I. The resulting suspension was filtered through Falcon cell strainers, and the cells were negatively selected with anti-CD16/CD32 antibodies. Cells were maintained in BEGM+5% charcoal-stripped FBS and 10 ng/ml KGF. A549 cells were obtained from the American Type Culture Collection (ATCC, Manassas, Va.) and maintained in DMEM+2 mM glutamine+10% FBS. Primary Type II Cells were pre-treated with 500 ng/ml recombinant CHI3L1, transfected with IL-13Rα2 construct, and stimulated with 100 μg/ml bleomycin. In A549 cells, HPS1, HPS4, Rab32, and Rab38 siRNA were co-transfected with IL-13Rα2 construct, and stimulated with 100 μg/ml bleomycin. Cells were cytospun onto slides. Immunofluorescence and/or TUNEL staining were performed as previously described.

CRTH2 = CRTH2 (Mus musculus, UniProt Q9Z2J6); settings: intratracheal bleomycin, 30 mg/kg IP every other day, Day 5 to Day 14; for bleomycin-induced collagen accumulation: Sircol on Day 14 (FIG. 6D)
Sequence of CRTH2 (Q9Z2J6 whole entry): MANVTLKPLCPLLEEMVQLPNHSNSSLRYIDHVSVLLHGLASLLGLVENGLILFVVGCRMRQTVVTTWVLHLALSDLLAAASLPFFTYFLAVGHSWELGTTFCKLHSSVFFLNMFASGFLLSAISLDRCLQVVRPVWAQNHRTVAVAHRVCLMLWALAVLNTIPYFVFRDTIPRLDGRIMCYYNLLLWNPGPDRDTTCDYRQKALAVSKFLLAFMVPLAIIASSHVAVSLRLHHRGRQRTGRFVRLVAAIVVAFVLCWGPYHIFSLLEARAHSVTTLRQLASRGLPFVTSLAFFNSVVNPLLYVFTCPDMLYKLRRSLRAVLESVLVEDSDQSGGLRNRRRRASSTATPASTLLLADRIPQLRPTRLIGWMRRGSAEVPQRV
Protocol: Sex-matched, 8-wk-old wild-type (WT), pale ear, CHI3L1^−/−, and CHI3L1Tgmice (≥5 mice/group) were exposed to a single bleomycin injection (1.25 U/kg; Teva Parenteral Medicines, Irvine, Calif.) via intratracheal administration. Mice were sacrificed and evaluated at Day 7 and Day 14 to examine apoptosis and fibrosis, respectively.
Animals were anesthetized, median sternotomy was performed, and right heart perfusion completed with calcium and magnesium-free PBS. The heart and lungs were then removed. The right lung was frozen in liquid nitrogen and stored at −80° C. until used. Collagen content was determined by quantifying total soluble collagen using the Sircol Collagen Assay kit (Biocolor, Accurate Chemical & Scientific Co., Westbury, N.Y.) according to the manufacturer's instructions.
Sex-matched, 8-wk-old wild-type (WT), pale ear, and CHI3L1 Tg mice (≥5 mice/group) were exposed to a single bleomycin injection (1.25 U/kg; Teva Parenteral Medicines, Irvine, Calif.) via intratracheal administration. Mice were treated with 30 mg/kg CAY10471 (Cayman Chemical) (IP, every other day) or DMSO control from Day 5 to Day 14.

Compound: Recombinant CHI3L1: recombinant chitinase 3-like-1 protein
- bleomycin-induced apoptosis (TUNEL-positive cells) ([1]; cells from WT mice): powerful inhibitor
- bleomycin-induced apoptosis (TUNEL-positive cells) ([1]; cells from pale ear mice): did not decrease

Compound: CN(C1CCc2c(c3ccccc3n2CC(=O)O)C1)S(=O)(=O)c1ccc(F)cc1 (centres unmarked) [CAY10471]
- exaggerated fibrosis caused by CHI3L1 transgene activation during fibroproliferative repair (CRTH2; CHI3L1 Tg mice, Sircol on Day 14 (FIG. 6E)): abrogated
- bleomycin-induced collagen accumulation (CRTH2; HPS1 null (pale ear) mice): decreased
- bleomycin-induced collagen accumulation (CRTH2; WT mice): decreased
